Test results taken from publication PMC7686313, “Phase 1 study of mTORC1/2 inhibitor sapanisertib (TAK-228) in advanced solid tumours, with an expansion phase in renal, endometrial or bladder cancer” (British Journal of Cancer, 2020).

Test: Safety (adverse events, NCI CTCAE v4.0), expansion phase
Source text: Based on data collected during dose-escalation, the expansion phase evaluated the safety and efficacy of QD and QW sapanisertib in patients with RCC, endometrial or bladder cancer. Patients could continue receiving sapanisertib for ≤1 year (or beyond, if the investigator and sponsor agreed) in the absence of disease progression or unacceptable toxicity.
Patients who received ≥1 dose of sapanisertib were included in the safety population. The response-evaluable population included patients who received ≥1 dose of sapanisertib, had measurable disease at baseline, and had ≥1 postbaseline assessment. […] Adverse events (AEs) were assessed using the National Cancer Institute Common Terminology Criteria for Adverse Events, v4.0. Patients were provided with a home blood-glucose meter to monitor their fasting predose blood-glucose measurements to assess hyperglycaemia as an on-target AE and PD marker.

CC(C)n1nc(-c2ccc3oc(N)nc3c2)c2c(N)ncnc21 [Sapanisertib]
0 n (%): On-study deaths (expansion QD 5 mg)
4 (24) n (%): Blood creatinine increased, all-grade AE of any cause (expansion QW 30 mg) | Dehydration, all-grade AE of any cause (expansion QW 30 mg) | Depression, all-grade AE of any cause (expansion QW 30 mg) | Dysgeusia, all-grade AE of any cause (expansion QW 30 mg) | Pruritus generalised, all-grade AE of any cause (expansion QW 30 mg)
6 (15) n (%): Anaemia, all-grade AE of any cause (expansion QD 5 mg) | Dehydration, all-grade AE of any cause (expansion QD 5 mg) | Urinary tract infection, all-grade AE of any cause (expansion QD 5 mg) | Weight decreased, all-grade AE of any cause (expansion QD 5 mg)
27 (69) n (%): Any AE resulting in dose modification/interruption (expansion QD 5 mg)
10 (59) n (%): Vomiting, all-grade AE of any cause (expansion QW 30 mg) | Vomiting, treatment-related AE (expansion QW 30 mg)
30 (77) n (%): Any grade ≥3 AE (expansion QD 5 mg)
2 (12) n (%): Anaemia, all-grade AE of any cause (expansion QW 30 mg) | Anaemia, treatment-related AE (expansion QW 30 mg) | Arthralgia, all-grade AE of any cause (expansion QW 30 mg) | Dehydration, treatment-related AE (expansion QW 30 mg) | Fatigue, grade ≥3 AE of any cause (expansion QW 30 mg) | Fatigue, treatment-related grade ≥3 AE (expansion QW 30 mg) | Headache, all-grade AE of any cause (expansion QW 30 mg) | Hyperglycaemia, grade ≥3 AE of any cause (expansion QW 30 mg) | Hyperglycaemia, treatment-related grade ≥3 AE (expansion QW 30 mg) | Hypophosphatemia, grade ≥3 AE of any cause (expansion QW 30 mg) | Hypophosphatemia, treatment-related AE (expansion QW 30 mg) | Nausea, grade ≥3 AE of any cause (expansion QW 30 mg) | On-study deaths (expansion QW 30 mg) | Pain in extremity, grade ≥3 AE of any cause (expansion QW 30 mg) | Pruritus generalised, treatment-related AE (expansion QW 30 mg) | Rash maculo-papular, treatment-related AE (expansion QW 30 mg) | Weight decreased, all-grade AE of any cause (expansion QW 30 mg)
12 (71) n (%): Hyperglycaemia, all-grade AE of any cause (expansion QW 30 mg) | Hyperglycaemia, treatment-related AE (expansion QW 30 mg)
7 (41) n (%): Decreased appetite, all-grade AE of any cause (expansion QW 30 mg)
1 (3) n (%): Anaemia, grade ≥3 AE of any cause (expansion QD 5 mg) | Asthenia, grade ≥3 AE of any cause (expansion QD 5 mg) | Asthenia, treatment-related grade ≥3 AE (expansion QD 5 mg) | Depression, all-grade AE of any cause (expansion QD 5 mg) | Dyspepsia, treatment-related AE (expansion QD 5 mg) | Hypertension, grade ≥3 AE of any cause (expansion QD 5 mg) | Hypokalaemia, grade ≥3 AE of any cause (expansion QD 5 mg) | Hyponatremia, grade ≥3 AE of any cause (expansion QD 5 mg) | Lymphopenia, grade ≥3 AE of any cause (expansion QD 5 mg) | Musculoskeletal chest pain, grade ≥3 AE of any cause (expansion QD 5 mg) | Nausea, grade ≥3 AE of any cause (expansion QD 5 mg) | Nausea, treatment-related grade ≥3 AE (expansion QD 5 mg) | Pruritus generalised, treatment-related grade ≥3 AE (expansion QD 5 mg) | Rash, treatment-related AE (expansion QD 5 mg) | Sepsis, grade ≥3 AE of any cause (expansion QD 5 mg) | Vomiting, grade ≥3 AE of any cause (expansion QD 5 mg)
17 (100) n (%): Any AE (expansion QW 30 mg) | Any treatment-related AE (expansion QW 30 mg)
5 (29) n (%): Cough, all-grade AE of any cause (expansion QW 30 mg) | Diarrhoea, treatment-related AE (expansion QW 30 mg)
9 (53) n (%): Any grade ≥3 AE (expansion QW 30 mg) | Stomatitis, all-grade AE of any cause (expansion QW 30 mg)
12 (31) n (%): Pruritus generalised, all-grade AE of any cause (expansion QD 5 mg) | Vomiting, treatment-related AE (expansion QD 5 mg)
18 (46) n (%): Any treatment-related grade ≥3 AE (expansion QD 5 mg) | Hyperglycaemia, all-grade AE of any cause (expansion QD 5 mg)
21 (54) n (%): Nausea, all-grade AE of any cause (expansion QD 5 mg)
8 (21) n (%): Pyrexia, all-grade AE of any cause (expansion QD 5 mg)
3 (8) n (%): Abdominal pain, grade ≥3 AE of any cause (expansion QD 5 mg) | Blood creatinine increased, treatment-related AE (expansion QD 5 mg) | Dry mouth, treatment-related AE (expansion QD 5 mg) | Hypophosphatemia, treatment-related AE (expansion QD 5 mg) | Hypophosphatemia, treatment-related grade ≥3 AE (expansion QD 5 mg) | Oropharyngeal pain, all-grade AE of any cause (expansion QD 5 mg) | Rash maculo-papular, grade ≥3 AE of any cause (expansion QD 5 mg) | Rash maculo-papular, treatment-related grade ≥3 AE (expansion QD 5 mg) | Stomatitis, grade ≥3 AE of any cause (expansion QD 5 mg) | Stomatitis, treatment-related grade ≥3 AE (expansion QD 5 mg)
14 (36) n (%): Rash maculo-papular, treatment-related AE (expansion QD 5 mg)
17 (44) n (%): Decreased appetite, treatment-related AE (expansion QD 5 mg) | Diarrhoea, treatment-related AE (expansion QD 5 mg) | Hyperglycaemia, treatment-related AE (expansion QD 5 mg) | Rash maculo-papular, all-grade AE of any cause (expansion QD 5 mg)
5 (13) n (%): Any treatment-related SAE (expansion QD 5 mg) | Blood creatinine increased, all-grade AE of any cause (expansion QD 5 mg) | Dry mouth, all-grade AE of any cause (expansion QD 5 mg) | Fatigue, grade ≥3 AE of any cause (expansion QD 5 mg) | Hyperglycaemia, grade ≥3 AE of any cause (expansion QD 5 mg) | Hyperglycaemia, treatment-related grade ≥3 AE (expansion QD 5 mg) | Weight decreased, treatment-related AE (expansion QD 5 mg)
20 (51) n (%): Decreased appetite, all-grade AE of any cause (expansion QD 5 mg) | Diarrhoea, all-grade AE of any cause (expansion QD 5 mg) | Nausea, treatment-related AE (expansion QD 5 mg)
2 (5) n (%): Acute kidney injury, grade ≥3 AE of any cause (expansion QD 5 mg) | Acute kidney injury, treatment-related AE (expansion QD 5 mg) | Anaemia, treatment-related AE (expansion QD 5 mg) | Arthralgia, all-grade AE of any cause (expansion QD 5 mg) | Dehydration, treatment-related AE (expansion QD 5 mg) | Diarrhoea, grade ≥3 AE of any cause (expansion QD 5 mg) | Diarrhoea, treatment-related grade ≥3 AE (expansion QD 5 mg) | Dyspnoea, grade ≥3 AE of any cause (expansion QD 5 mg) | Haematuria, grade ≥3 AE of any cause (expansion QD 5 mg) | Hyperkalaemia, grade ≥3 AE of any cause (expansion QD 5 mg) | Pneumonia, grade ≥3 AE of any cause (expansion QD 5 mg) | Thrombocytopenia, grade ≥3 AE of any cause (expansion QD 5 mg) | Thrombocytopenia, treatment-related grade ≥3 AE (expansion QD 5 mg)
0 (0) n (%): Constipation, grade ≥3 AE of any cause (expansion QD 5 mg) | Dehydration, grade ≥3 AE of any cause (expansion QD 5 mg) | Dehydration, treatment-related grade ≥3 AE (expansion QD 5 mg) | Headache, treatment-related AE (expansion QD 5 mg) | Hypercholesterolemia, treatment-related AE (expansion QD 5 mg) | Lymphopenia, treatment-related grade ≥3 AE (expansion QD 5 mg) | Pain in extremity, grade ≥3 AE of any cause (expansion QD 5 mg) | Rash, treatment-related grade ≥3 AE (expansion QD 5 mg) | Transitional cell carcinoma, grade ≥3 AE of any cause (expansion QD 5 mg) | Abdominal pain, grade ≥3 AE of any cause (expansion QW 30 mg) | Acute kidney injury, grade ≥3 AE of any cause (expansion QW 30 mg) | Acute kidney injury, treatment-related AE (expansion QW 30 mg) | Asthenia, grade ≥3 AE of any cause (expansion QW 30 mg) | Asthenia, treatment-related grade ≥3 AE (expansion QW 30 mg) | Dehydration, grade ≥3 AE of any cause (expansion QW 30 mg) | Dehydration, treatment-related grade ≥3 AE (expansion QW 30 mg) | Diarrhoea, grade ≥3 AE of any cause (expansion QW 30 mg) | Diarrhoea, treatment-related grade ≥3 AE (expansion QW 30 mg) | Dizziness, all-grade AE of any cause (expansion QW 30 mg) | Dyspnoea, grade ≥3 AE of any cause (expansion QW 30 mg) | Haematuria, grade ≥3 AE of any cause (expansion QW 30 mg) | Headache, treatment-related AE (expansion QW 30 mg) | Hyperkalaemia, grade ≥3 AE of any cause (expansion QW 30 mg) | Hypertension, grade ≥3 AE of any cause (expansion QW 30 mg) | Lymphopenia, grade ≥3 AE of any cause (expansion QW 30 mg) | Lymphopenia, treatment-related grade ≥3 AE (expansion QW 30 mg) | Musculoskeletal chest pain, grade ≥3 AE of any cause (expansion QW 30 mg) | Pneumonia, grade ≥3 AE of any cause (expansion QW 30 mg) | Pruritus generalised, treatment-related grade ≥3 AE (expansion QW 30 mg) | Rash maculo-papular, grade ≥3 AE of any cause (expansion QW 30 mg) | Rash maculo-papular, treatment-related grade ≥3 AE (expansion QW 30 mg) | Rash, treatment-related AE (expansion QW 30 mg) | Rash, treatment-related grade ≥3 AE (expansion QW 30 mg) | Stomatitis, grade ≥3 AE of any cause (expansion QW 30 mg) | Stomatitis, treatment-related grade ≥3 AE (expansion QW 30 mg) | Weight decreased, treatment-related AE (expansion QW 30 mg)
4 (10) n (%): Fatigue, treatment-related grade ≥3 AE (expansion QD 5 mg) | Headache, all-grade AE of any cause (expansion QD 5 mg) | Hypophosphatemia, grade ≥3 AE of any cause (expansion QD 5 mg)
7 (18) n (%): Abdominal pain, all-grade AE of any cause (expansion QD 5 mg) | Any AE resulting in treatment discontinuation (expansion QD 5 mg) | Asthenia, treatment-related AE (expansion QD 5 mg) | Pruritus, treatment-related AE (expansion QD 5 mg)
39 (100) n (%): Any AE (expansion QD 5 mg) | Any treatment-related AE (expansion QD 5 mg)
8 (47) n (%): Any AE resulting in dose modification/interruption (expansion QW 30 mg) | Constipation, all-grade AE of any cause (expansion QW 30 mg) | Diarrhoea, all-grade AE of any cause (expansion QW 30 mg) | Stomatitis (includes oropharyngeal pain and mucosal inflammation), treatment-related AE (expansion QW 30 mg)
11 (65) n (%): Fatigue, all-grade AE of any cause (expansion QW 30 mg) | Fatigue, treatment-related AE (expansion QW 30 mg) | Nausea, treatment-related AE (expansion QW 30 mg)
22 (56) n (%): Fatigue, treatment-related AE (expansion QD 5 mg)
25 (64) n (%): Fatigue, all-grade AE of any cause (expansion QD 5 mg)
13 (33) n (%): Vomiting, all-grade AE of any cause (expansion QD 5 mg)
1 (6) n (%): Anaemia, grade ≥3 AE of any cause (expansion QW 30 mg) | Asthenia, treatment-related AE (expansion QW 30 mg) | Blood creatinine increased, treatment-related AE (expansion QW 30 mg) | Constipation, grade ≥3 AE of any cause (expansion QW 30 mg) | Dry mouth, treatment-related AE (expansion QW 30 mg) | Hypercholesterolemia, treatment-related AE (expansion QW 30 mg) | Hypokalaemia, grade ≥3 AE of any cause (expansion QW 30 mg) | Hyponatremia, grade ≥3 AE of any cause (expansion QW 30 mg) | Hypophosphatemia, treatment-related grade ≥3 AE (expansion QW 30 mg) | Nausea, treatment-related grade ≥3 AE (expansion QW 30 mg) | Oedema peripheral, all-grade AE of any cause (expansion QW 30 mg) | Oropharyngeal pain, all-grade AE of any cause (expansion QW 30 mg) | Pruritus, all-grade AE of any cause (expansion QW 30 mg) | Pruritus, treatment-related AE (expansion QW 30 mg) | Pyrexia, all-grade AE of any cause (expansion QW 30 mg) | Sepsis, grade ≥3 AE of any cause (expansion QW 30 mg) | Thrombocytopenia, grade ≥3 AE of any cause (expansion QW 30 mg) | Thrombocytopenia, treatment-related grade ≥3 AE (expansion QW 30 mg) | Transitional cell carcinoma, grade ≥3 AE of any cause (expansion QW 30 mg) | Urinary tract infection, all-grade AE of any cause (expansion QW 30 mg) | Vomiting, grade ≥3 AE of any cause (expansion QW 30 mg)
13 (76) n (%): Nausea, all-grade AE of any cause (expansion QW 30 mg)
6 (35) n (%): Abdominal pain, all-grade AE of any cause (expansion QW 30 mg) | Any SAE (expansion QW 30 mg) | Any treatment-related grade ≥3 AE (expansion QW 30 mg) | Decreased appetite, treatment-related AE (expansion QW 30 mg)
10 (26) n (%): Constipation, all-grade AE of any cause (expansion QD 5 mg) | Dysgeusia, all-grade AE of any cause (expansion QD 5 mg) | Dysgeusia, treatment-related AE (expansion QD 5 mg) | Pruritus, all-grade AE of any cause (expansion QD 5 mg)
11 (28) n (%): Pruritus generalised, treatment-related AE (expansion QD 5 mg)
3 (18) n (%): Any AE resulting in treatment discontinuation (expansion QW 30 mg) | Any treatment-related SAE (expansion QW 30 mg) | Dry mouth, all-grade AE of any cause (expansion QW 30 mg) | Dysgeusia, treatment-related AE (expansion QW 30 mg) | Dyspepsia, treatment-related AE (expansion QW 30 mg) | Rash maculo-papular, all-grade AE of any cause (expansion QW 30 mg)
19 (49) n (%): Any SAE (expansion QD 5 mg) | Stomatitis (includes oropharyngeal pain and mucosal inflammation), treatment-related AE (expansion QD 5 mg) | Stomatitis, all-grade AE of any cause (expansion QD 5 mg)
9 (23) n (%): Cough, all-grade AE of any cause (expansion QD 5 mg) | Dizziness, all-grade AE of any cause (expansion QD 5 mg) | Oedema peripheral, all-grade AE of any cause (expansion QD 5 mg)
